US8039512B2, “Biologically active oils” (priority 2003, dated 2011)

Columns and labels:
[1] = tested on: 5-lipoxygenase pathway of human neutrophils (PMN); test: Lipoxygenase pathways (leukotrienes and HETE) HPLC assay in isolated PMN; type: cell-based; details: for 5-HETE synthesis / Isomer 1 (all trans isomer of LTB4) synthesis / Isomer 2 (all trans isomer of LTB4) synthesis / LTB4 synthesis: human PMN, arachidonic acid + A23187
Text: The HPLC assay readily quantifies 5-HETE, 12-HETE, LTB4, and the two all trans-isomers of LTB-4, and thus gives quantitative data on the relative activities of the enzymes in the 5-lipoxygenase of neutrophils, as well as data on the 12-lipoxygenase pathway of platelets. Thus it is an ideal system to test potential inhibitors of these pathways.
The effects of inhibitory compounds may be tested on isolated human PMN and platelets, in which the pathways are activated by treating the PMN or platelets with arachidonic acid and the calcium ionophore A23187. The addition of arachidonic acid eliminates the PLA-2 step, and provides high levels of substrate for the pathway. Furthermore, such activation is known to maximally drive the pathway to produce the greatest synthesis of all the metabolites, and thus is also the least sensitive to inhibition.
All samples were dissolved in ethanol to give stock solutions of 10 mg/mL. Two further dilutions of each stock solution were made in ethanol at 5 and 1 mg/mL, making 10 test samples in all. […]
1. Up to 100 mL of blood was taken from a normal volunteer and anticoagulated with EDTA. Two mL of 4.5% EDTA in water was mixed with each 10 mL of blood.
2. A further 2 mL of 6.0% Dextran T500 was added to each of the 12 mL mixtures in 1, and placed in a water bath at 37° C., to sediment the red blood cells.
3. Following sedimentation in 2, the supernatant was carefully laid over 5 mL of Percoll, density 1.070. This was then spun at 500 g for 35 mins.
4. All the cells (PMN and remaining RBC) below the Percoll interface were removed with a plastic pipette and diluted at least 3-fold with Ca^2+/Mg^2+-free Dulbecco's phosphate buffer, and centrifuged at 600 g for 10 mins.
5. Following 4, the supernatant was carefully aspirated, and the pellet gently mixed with 1 mL of Ca^2+/Mg^2+-free Dulbecco's phosphate buffer by aspiration/deaspiration into a 1 ml plastic disposable pipette. A further 40 mL of Ca^2+/Mg^2+-free Dulbecco's phosphate buffer was then added and mixed by inversion. The cell suspension was then centrifuged at 600 g for 10 mins. 6. Following centrifugation, the supernatant was removed and the PMN pellet lysed with 10 mL of a 0.2% cold sodium chloride solution for 20 secs, followed by the addition of 10 mL of a 1.6% cold sodium chloride solution, and centrifuged at 600 g for 10 mins. 7. Following 6, the PMN pellet was vigorously mixed with 1 mL of Hank's buffer by rapid aspiration/deaspiration into a 1 mL plastic disposable pipette, and then finally suspended in Hank's buffer at 2.4×10^6 PMN/ml (as measured using a Coulter counter), in preparation for the leukotriene assay. Activation of Leukotriene Pathway 1. 1 mL of PMN suspension (2.4×10^6 PMN/ml) was transferred to a 13 mL glass tube (chromic acid washed) and placed in a water bath at 37° C. for 5 min prewarming. 2. Following prewarming, at time zero, 10 μL of each test compound in methanol (or equivalent volumes of methanol as control) was added to quadruplicate tubes over a 20 sec period. 3. At 5 min, 5 µL of 2 mM arachidonic acid (10 μM final) was added (4 tubes/20 secs). 4. At 10 min, 5 µL of 1 mM calcium ionophore (A23187) (5 μM final) was added (4 tubes/20 secs). 5. At 15 min the reaction was terminated by the addition of 100 μL 100 mM citric acid. This lowers the pH of the aqueous phase to less than 3, which is necessary for the extraction of the leukotrienes into the organic phase. 6. The pH of several samples was checked to ensure pH<3.0. (This is important). 7. 40 ng Prostaglandin B2 and 166 ng 15-HETE were added to each tube as the internal standard for LTB4 and 5-HETE respectively, and samples were mixed. 8. For Standard Curves LTB4 [1 ng/μl] (for a standard curve in the range 0-50 ng) and 5-HETE [5 ng/μL] (standard curve range 0-250 ng) were added to tubes containing 1 mL PMN, 100 μL of 100 mM citric acid and 40 ng PGB2 and 166 ng 15-HETE. 9. All tubes were vortexed. 10. […]

[2] = tested on: Secreted PGE2 from 3T3 cells; test: In-vitro prostaglandin PGE2 (COX pathways) EIA assay; type: cell-based, mouse; details: 50 µM
Experimental: This assay was performed using Cayman chemicals Prostaglandin E2 EIA Kit-Monoclonal, according to kit protocol. Each sample was assayed at three dilutions in duplicate. […] In particular the two samples produced dose dependent inhibition of secreted PGE2 from the mouse fibroblast cell line equivalent to or better than aspirin under the test conditions.

Compound: CCC(C)CCCCCCCCCCC(=O)O (centres unmarked) [Sample 12-MTA, 12-methyl tetradecanoic acid]
- 5-HETE synthesis ([1]; 2 μg/mL): 55 ± 9 percentage of the methanol control
- Isomer 1 (all trans isomer of LTB4) synthesis ([1]; 2 μg/mL): 73 ± 13 percentage of the methanol control
- Isomer 2 (all trans isomer of LTB4) synthesis ([1]; 2 μg/mL): 60 ± 17 percentage of the methanol control
- LTB4 synthesis ([1]; 2 μg/mL): 84 ± 5 percentage of the methanol control
- 5-HETE synthesis ([1]; 5 μg/mL): 65 ± 3 percentage of the methanol control
- Isomer 1 (all trans isomer of LTB4) synthesis ([1]; 5 μg/mL): 101 ± 12 percentage of the methanol control
- Isomer 2 (all trans isomer of LTB4) synthesis ([1]; 5 μg/mL): 97 ± 9 percentage of the methanol control
- LTB4 synthesis ([1]; 5 μg/mL): 101 ± 12 percentage of the methanol control
- 5-HETE synthesis ([1]; 10 μg/mL): 46 ± 11 percentage of the methanol control
- Isomer 1 (all trans isomer of LTB4) synthesis ([1]; 10 μg/mL): 59 ± 14 percentage of the methanol control
- Isomer 2 (all trans isomer of LTB4) synthesis ([1]; 10 μg/mL): 68 ± 14 percentage of the methanol control
- LTB4 synthesis ([1]; 10 μg/mL): 70 ± 17 percentage of the methanol control
- 5-HETE synthesis ([1]; 20 μg/mL): 2 ± 4 percentage of the methanol control
- Isomer 1 (all trans isomer of LTB4) synthesis ([1]; 20 μg/mL): 0 percentage of the methanol control
- Isomer 2 (all trans isomer of LTB4) synthesis ([1]; 20 μg/mL): 0 percentage of the methanol control
- LTB4 synthesis ([1]; 20 μg/mL): 0 percentage of the methanol control
- 5-HETE synthesis ([1]; 50 μg/mL): 0 percentage of the methanol control
- Isomer 1 (all trans isomer of LTB4) synthesis ([1]; 50 μg/mL): 0 percentage of the methanol control
- Isomer 2 (all trans isomer of LTB4) synthesis ([1]; 50 μg/mL): 0 percentage of the methanol control
- LTB4 synthesis ([1]; 50 μg/mL): 0 percentage of the methanol control
- Inhibition of the 5-LOX pathway ([1]; as low as 20 μg/mL): 100%

Compound: CC(=O)Oc1ccccc1C(=O)O [Aspirin]
- % Control (secreted PGE2) ([2]; A23187): 72.6 % Control
- % Control (secreted PGE2) ([2]; A23187, listed as aspirin): around 72.6 % Control
